Data on 13 compounds can be found in patent publication US20240398805A1, “QUINAZOLINE DERIVED COMPOUNDS AS EGFR INHIBITORS AND THEIR USES THEREOF” (ACCUTAR BIOTECHNOLOGY INC., priority 2021, published 2024).

SMILES strings stand for the structures. A value given as a limit tells only on which side of the number the result lay.

As a reminder, the GI50 is the concentration giving 50% growth inhibition.

Common to all, as to type: cell-based
Test [1] relates to HCC827 cells. As to the kind of experiment: Cell growth inhibition (CellTiter-Glo, 3 days) in HCC827. The conditions noted are these: Homo sapiens, 72 h, 3 days after administration. An outline of the steps:
(§1)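 HCC827 cells were plated at 5000 cells/well in RPMI with 10% FBS, and A431 cells at the same density in DMEM with 10% FBS. After overnight attachment, compounds were added at various concentrations. Luminescence was recorded after plates were equilibrated to room temperature and incubated 10 min with reagent.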
For orientation: In ATP-based viability assays light output follows the ATP content of the culture.

In test [2] the test system is HCC827-SVD cells (human EGFR exon 20 insertion mutant D770_N771 insSVD). As to the kind of experiment: Cell growth inhibition (CellTiter-Glo, 3 days) in HCC827-SVD. The conditions noted are these: 72 h, 3 days after administration. An outline of the steps: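 HCC827 cells carrying lentiviral codon-optimized EGFR D770_N771 insSVD, with endogenous EGFR knocked out by CRISPR (single clone), seeded at 5000 cells/well in RPMI with 10% FBS. Viability read by CellTiter-Glo luminescence.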

The subject of test [3] is HCC827-ASV cells (human EGFR exon 20 insertion mutant A769_D770insASV). Briefly: Cell growth inhibition (CellTiter-Glo, 3 days) in HCC827-ASV. To be noted: 72 h, 3 days after administration. An outline of the steps:
(§2)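 Growth inhibition used a CellTiter-Glo luminescence read-out after 3 days of compound exposure at various concentrations. Cells were plated the day before at 5000/well in RPMI plus 10% FBS. The lines are HCC827 transduced by lentivirus with codon-optimized EGFR ASV or ERBB2 YVMA exon 20 insertions.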

Test [4] relates to HCC827-YVMA cells (human ERBB2 exon20 insertion mutant A775_G776ins YVMA). Briefly: Cell growth inhibition (CellTiter-Glo, 3 days) in HCC827-YVMA. The conditions noted are these: 72 h, 3 days after administration. The method, boiled down: as §2
Test [5] has as its system A431 cells. Briefly: Cell growth inhibition (CellTiter-Glo, 3 days) in A431. To be noted: Homo sapiens, A-431, 72 h, 3 days after administration. An outline of the steps:
as §1

As to `C=CC(=O)N1CCC(Nc2cc3c(Nc4ccc(Oc5ccnc(N6CCN(C(C)=O)CC6)c5)cc4F)ncnc3cc2OC)CC1` [Example 120, 1-(4-((4-((4-((2-(4-acetylpiperazin-1-yl)pyridin-4-yl)oxy)-2-fluorophenyl)amino)-7-methoxyquinazolin-6-yl)amino)piperidin-1-yl)prop-2-en-1-one], the GI50 was no less than 1000 nM in test [1]; 100 to 300 nM in test [2]; 100 to 300 nM in test [3]; 600 to 1000 nM in test [4]; no less than 1000 nM in test [5].

Regarding `C=CC(=O)N1CCC(Nc2cc3c(Nc4ccc(Oc5ccnc(N6CCC(O)CC6)c5)cc4F)ncnc3cc2OC)CC1` [Example 121, 1-(4-((4-((2-fluoro-4-((2-(4-hydroxypiperidin-1-yl)pyridin-4-yl)oxy)phenyl)amino)-7-methoxyquinazolin-6-yl)amino)piperidin-1-yl)prop-2-en-1-one], the GI50 was 300 to 600 nM in test [1]; less than 30 nM in test [2]; less than 30 nM in test [3]; less than 30 nM in test [4]; no less than 1000 nM in test [5].

With `C=CC(=O)N1CCC(Nc2cc3c(Nc4ccc(Oc5ccnc(N6CCC(N(C)C)CC6)c5)cc4F)ncnc3cc2OC)CC1` [Example 122, 1-(4-((4-((4-((2-(4-(dimethylamino)piperidin-1-yl)pyridin-4-yl)oxy)-2-fluorophenyl)amino)-7-methoxyquinazolin-6-yl)amino)piperidin-1-yl)prop-2-en-1-one], the GI50 in test [1] is 600 to 1000 nM; in test [2], 600 to 1000 nM; in test [3], 600 to 1000 nM; in test [4] it was no less than 1000 nM; in test [5], no less than 1000 nM.

With `C=CC(=O)N1CCC(Nc2cc3c(Nc4ccc(Oc5ccnc(N6CCNCC6)c5)cc4F)ncnc3cc2OC)CC1` [Example 123, 1-(4-((4-((2-fluoro-4-((2-(piperazin-1-yl)pyridin-4-yl)oxy)phenyl)amino)-7-methoxyquinazolin-6-yl)amino)piperidin-1-yl)prop-2-en-1-one], the GI50 in test [1] was no less than 1000 nM; in test [2] it was 300 to 600 nM; in test [3] it was 300 to 600 nM; in test [4], 600 to 1000 nM; in test [5], no less than 1000 nM.

As to `C=CC(=O)N1CCC(Nc2cc3c(Nc4ccc(Oc5ccnc(N6CCO[C@@H](CO)C6)c5)cc4F)ncnc3cc2OC)CC1` [Example 124, (R)-1-(4-((4-((2-fluoro-4-((2-(2-(hydroxymethyl)morpholino)pyridin-4-yl)oxy)phenyl)amino)-7-methoxyquinazolin-6-yl)amino)piperidin-1-yl)prop-2-en-1-one], the GI50 in test [1] was 600 to 1000 nM; in test [2], 30 to 60 nM; in test [3] it was 30 to 60 nM; in test [4], 60 to 100 nM; in test [5], no less than 1000 nM.

Turning to `C=CC(=O)N1CCC(Nc2cc3c(Nc4ccc(Oc5ccnc(N6CCO[C@H](CO)C6)c5)cc4F)ncnc3cc2OC)CC1` [Example 125, (S)-1-(4-((4-((2-fluoro-4-((2-(2-(hydroxymethyl)morpholino)pyridin-4-yl)oxy)phenyl)amino)-7-methoxyquinazolin-6-yl)amino)piperidin-1-yl)prop-2-en-1-one], the GI50 in test [1] was no less than 1000 nM; in test [2], 300 to 600 nM; in test [3] it was 100 to 300 nM; in test [4], 100 to 300 nM; in test [5] it was no less than 1000 nM.

Regarding `C=CC(=O)N1CCC(Nc2cc3c(Nc4ccc(Oc5ccnc(N6CCOC[C@H]6CO)c5)cc4F)ncnc3cc2OC)CC1` [Example 126, (R)-1-(4-((4-((2-fluoro-4-((2-(3-(hydroxymethyl)morpholino)pyridin-4-yl)oxy)phenyl)amino)-7-methoxyquinazolin-6-yl)amino)piperidin-1-yl)prop-2-en-1-one], the GI50 was no less than 1000 nM in test [1]; 100 to 300 nM in test [2]; 60 to 100 nM in test [3]; 100 to 300 nM in test [4]; no less than 1000 nM in test [5].

In the case of `C=CC(=O)N1CCC(Nc2cc3c(Nc4ccc(Oc5ccnc(N6CCOC[C@@H]6CO)c5)cc4F)ncnc3cc2OC)CC1` [Example 127, (S)-1-(4-((4-((2-fluoro-4-((2-(3-(hydroxymethyl)morpholino)pyridin-4-yl)oxy)phenyl)amino)-7-methoxyquinazolin-6-yl)amino)piperidin-1-yl)prop-2-en-1-one], the GI50 was 600 to 1000 nM in test [1]; 100 to 300 nM in test [2]; 100 to 300 nM in test [3]; 100 to 300 nM in test [4]; no less than 1000 nM in test [5].

Turning to `C=CC(=O)N1CCC(Nc2cc3c(Nc4ccc(Oc5ccnc(N6CCC(C)(O)CC6)c5)cc4F)ncnc3cc2OC)CC1` [Example 128, 1-(4-((4-((2-fluoro-4-((2-(4-hydroxy-4-methylpiperidin-1-yl)pyridin-4-yl)oxy)phenyl)amino)-7-methoxyquinazolin-6-yl)amino)piperidin-1-yl)prop-2-en-1-one], the GI50 is 300 to 600 nM in test [1]; 60 to 100 nM in test [2]; 100 to 300 nM in test [3]; 100 to 300 nM in test [4]; no less than 1000 nM in test [5].

Regarding `C=CC(=O)N1CCC(Nc2cc3c(Nc4ccc(Oc5ccnc(N6CCC(C)(OC)CC6)c5)cc4F)ncnc3cc2OC)CC1` [Example 129, 1-(4-((4-((2-fluoro-4-((2-(4-methoxy-4-methylpiperidin-1-yl)pyridin-4-yl)oxy)phenyl)amino)-7-methoxyquinazolin-6-yl)amino)piperidin-1-yl)prop-2-en-1-one], the GI50 in test [1] is 300 to 600 nM; in test [2] it was 60 to 100 nM; in test [3], 30 to 60 nM; in test [4], 60 to 100 nM; in test [5], no less than 1000 nM.

Regarding `C=CC(=O)N1CCC(Nc2cc3c(Nc4ccc(Oc5ccnc(N6CC7CCC(C6)O7)c5)cc4F)ncnc3cc2OC)CC1` [Example 130, 1-(4-((4-((4-((2-(8-oxa-3-azabicyclo[3.2.1]octan-3-yl)pyridin-4-yl)oxy)-2-fluorophenyl)amino)-7-methoxyquinazolin-6-yl)amino)piperidin-1-yl)prop-2-en-1-one], the GI50 lay within 100 to 300 nM in test [1]; 30 to 60 nM in test [2]; 30 to 60 nM in test [3]; 30 to 60 nM in test [4]; 300 to 600 nM in test [5].

In the case of `C=CC(=O)N1CCC(Nc2cc3c(Nc4ccc(Oc5ccnc(N6C[C@@H]7C[C@H]6CO7)c5)cc4F)ncnc3cc2OC)CC1` [Example 131, 1-(4-((4-((4-((2-((1S,4S)-2-oxa-5-azabicyclo[2.2.1]heptan-5-yl)pyridin-4-yl)oxy)-2-fluorophenyl)amino)-7-methoxyquinazolin-6-yl)amino)piperidin-1-yl)prop-2-en-1-one], the GI50 is 600 to 1000 nM in test [1]; 60 to 100 nM in test [2]; 30 to 60 nM in test [3]; 60 to 100 nM in test [4]; no less than 1000 nM in test [5].

Consider `C=CC(=O)N1CCC(Nc2cc3c(Nc4ccc(Oc5ccnc(N6CCO[C@@H](C)C6)c5)cc4F)ncnc3cc2OC)CC1` [Example 132, (S)-1-(4-((4-((2-fluoro-4-((2-(2-methylmorpholino)pyridin-4-yl)oxy)phenyl)amino)-7-methoxyquinazolin-6-yl)amino)piperidin-1-yl)prop-2-en-1-one], for which the GI50 in test [1] was 100 to 300 nM; in test [2] it was less than 30 nM; in test [3], less than 30 nM; in test [4], less than 30 nM; in test [5] it was 600 to 1000 nM.
